US9029409B2, “Isoxazolines as therapeutic agents” (AbbVie Inc., priority 2011, dated 2015)

target: T1, recombinant human MMP13 catalytic domain (CD) (Homo sapiens, UniProt P45452); test: MMP-13 catalytic domain FRET enzyme assay; assay type: biochemical; details: recombinant human MMP-13 catalytic domain
T1 construct: catalytic domain (CD) construct encompassing residues 20-274 (SWISS-PROT P45452); made in house
Procedure, shortened: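 Human MMP-13 catalytic domain (res 20-274, E. coli-expressed), 0.4 nM, cleaving FRET peptide (0.25 μM) in Tris pH 7.5/CaCl2/NaCl/Brij 35, 5% DMSO, 60 min RT; EDTA-quenched, fluorescence 485/535 nm. IC50 from sigmoidal fit of % inhibition. Some compounds also run on APMA-activated full-length MMP13 (2 nM).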

| IC50 [nM] | Structure (SMILES) |
| --- | --- |
| 100 to 1000 | COc1ccc(CNC(=O)c2cc(C3=NOC(C)(c4ccc(CO)cc4)C3)nc(C)n2)cc1 (stereo not shown) |
| 10 to 100 | COc1cc(CNC(=O)c2cc(C3=NOC(c4cn[nH]c4)C3)nc(C)n2)ccc1F (stereo not shown) |
| < 10 | COc1cc(CNC(=O)c2cc(C3=NOC([C@H]4CC[C@H](NC(C)=O)CC4)C3)nc(C)n2)ccc1F (stereo partly shown) |
| < 10 | COc1cc(CNC(=O)c2cc(C3=NOC([C@H]4CC[C@H](NS(C)(=O)=O)CC4)C3)nc(C)n2)ccc1F (stereo partly shown) |
| < 10 | COc1cc(CNC(=O)c2cc(C3=NOC([C@H]4CC[C@H](NC(=O)CO)CC4)C3)nc(C)n2)ccc1F (stereo partly shown) |
| 10 to 100 | COc1cc(CNC(=O)c2cc(C3=NOC(c4ncccn4)C3)nc(C)n2)ccc1F (stereo not shown) |
| < 10 | COc1cc(CNC(=O)c2cc(C3=NOC(C4CCOCC4)C3)nc(C)n2)ccc1F (stereo not shown) |
| 10 to 100 | Cc1nc(C(=O)NCc2ccc(F)c(C)c2)cc(C2=NOC(c3ccccn3)C2)n1 (stereo not shown) |
| 10 to 100 | CC(=O)N1CCC(C2CC(c3cc(C(=O)NCc4ccc(F)c(C)c4)nc(C)n3)=NO2)CC1 (stereo not shown) |
| 100 to 1000 | COc1cc(CNC(=O)c2cc(C3=NO[C@@H]([C@H]4CO[C@H](CO)CO4)C3)nc(C)n2)ccc1F [drawing 837] |
| 10 to 100 | COc1cc(CNC(=O)c2cc(C3=NOC(C4CCN(C(=O)C5CC5)CC4)C3)nc(C)n2)ccc1F (stereo not shown) [drawing 875] |
| < 10 | COc1cc(CNC(=O)c2cc(C3=NOC(C4CCN(C(=O)N(C)C)CC4)C3)nc(C)n2)ccc1F (stereo not shown) [drawing 876] |
| 10 to 100 | CCNC(=O)N1CCC(C2CC(c3cc(C(=O)NCc4ccc(F)c(OC)c4)nc(C)n3)=NO2)CC1 (stereo not shown) [drawing 877] |
| 10 to 100 | COc1cc(CNC(=O)c2cc(C3=NOC(C4CCN(C(=O)CNC(C)=O)CC4)C3)nc(C)n2)ccc1F (stereo not shown) [drawing 879] |
| 10 to 100 | COc1cc(CNC(=O)c2cc(C3=NOC(C4CCN(C(=O)CC#N)CC4)C3)nc(C)n2)ccc1F (stereo not shown) [drawing 881] |
| < 10 | COc1cc(CNC(=O)c2cc(C3=NOC(C4CCN(C(=O)NCCO)CC4)C3)nc(C)n2)ccc1F (stereo not shown) [drawing 888] |
| < 10 | Cc1nc(C(=O)NCc2ccc(F)c(Cl)c2)cc(C2=NO[C@H]([C@H]3CO[C@H](CO)CO3)C2)n1 [drawing 901] |
| 100 to 1000 | Cc1nc(C(=O)NCc2ccc(F)c(Cl)c2)cc(C2=NO[C@@H]([C@H]3CO[C@H](CO)CO3)C2)n1 [drawing 902] |
| > 1000 | COc1ccc(CNC(=O)c2cc(C3=NO[C@H]([C@H]4CO[C@@H](CO)CO4)C3)nc(C)n2)cc1 [drawing 922] |

| IC50 [nM] | Structure (SMILES) |
| --- | --- |
| > 1000 | COc1ccc(CNC(=O)c2cc(C3=NO[C@H]([C@H]4CO[C@@H](CO)CO4)C3)nc(C)n2)cc1 [drawing 923] |
| > 1000 | Cc1nc(C(=O)NCc2ccc(F)c(Cl)c2)cc(C2=NO[C@H]([C@H]3CO[C@@H](CO)CO3)C2)n1 [drawing 924] |
| 10 to 100 | Cc1nc(C(=O)NCc2ccc(F)c(Cl)c2)cc(C2=NO[C@H]([C@H]3CO[C@@H](CO)CO3)C2)n1 [drawing 925] |
| 10 to 100 | Cc1nc(C(=O)NCc2ccc(F)c(F)c2)cc(C2=NO[C@H]([C@H]3CO[C@H](CO)CO3)C2)n1 [drawing 952] |
| > 1000 | Cc1nc(C(=O)NCc2ccc(F)c(F)c2)cc(C2=NO[C@H]([C@H]3CO[C@H](CO)CO3)C2)n1 [drawing 953] |
| < 10 | Cc1nc(C(=O)NCc2ccc(F)c(C)c2)cc(C2=NOC(c3ccc(=O)n(C)c3)C2)n1 (stereo not shown) [drawing 990] |
| < 10 | Cc1nc(C(=O)NCc2ccc(F)c(C)c2)cc(C2=NOC(c3ccc(=O)n(C)c3)C2)n1 (stereo not shown) [drawing 1015] |
| < 10 | COc1cc(CNC(=O)c2cc(C3=NO[C@H]([C@H]4CC[C@H](NC(C)=O)CC4)C3)nc(C)n2)ccc1F [drawing 1031] |
| 10 to 100 | COc1cc(CNC(=O)c2cc(C3=NO[C@H]([C@H]4CC[C@H](NC(C)=O)CC4)C3)nc(C)n2)ccc1F [drawing 1032] |
| 100 to 1000 | COc1cc(CNC(=O)c2cc(C3=NO[C@@H]([C@H]4CO[C@H](CO)CO4)C3)nc(C)n2)ccc1F [drawing 1055] |
| < 10 | COc1cc(CNC(=O)c2cc(C3=NOC(C4CCN(C(=O)N(C)C)CC4)C3)nc(C)n2)ccc1F (stereo not shown) [drawing 1061] |
| 10 to 100 | CCNC(=O)N1CCC(C2CC(c3cc(C(=O)NCc4ccc(F)c(OC)c4)nc(C)n3)=NO2)CC1 (stereo not shown) [drawing 1062] |
| 10 to 100 | COc1cc(CNC(=O)c2cc(C3=NOC(C4CCN(C(=O)C5CC5)CC4)C3)nc(C)n2)ccc1F (stereo not shown) [drawing 1063] |
| 10 to 100 | COc1cc(CNC(=O)c2cc(C3=NOC(C4CCN(C(=O)CNC(C)=O)CC4)C3)nc(C)n2)ccc1F (stereo not shown) [drawing 1064] |
| 10 to 100 | COc1cc(CNC(=O)c2cc(C3=NOC(C4CCN(C(=O)CC#N)CC4)C3)nc(C)n2)ccc1F (stereo not shown) [drawing 1065] |
| < 10 | COc1cc(CNC(=O)c2cc(C3=NOC(C4CCN(C(=O)NCCO)CC4)C3)nc(C)n2)ccc1F (stereo not shown) [drawing 1067] |
| 10 to 100 | Cc1nc(C(=O)NCc2ccc(F)c(Cl)c2)cc(C2=NO[C@H]([C@H]3CO[C@H](CO)CO3)C2)n1 [drawing 1069] |
| > 1000 | Cc1nc(C(=O)NCc2ccc(F)c(Cl)c2)cc(C2=NO[C@@H]([C@H]3CO[C@H](CO)CO3)C2)n1 [drawing 1070] |
